{"source": "patent US20220211699A1", "about": "(priority 2019, published 2022)", "key": {"[1]": {"test_system": "patients with diabetic neuropathy", "assay": "Clinical study, SF-36 Mental Component Summary (MCS): positive risk of depression or anxiety", "assay_type": "in vivo", "conditions": "Group 3", "procedure": "(§1) The clinical study was carried out on a population of 142 patients with diabetic neuropathy of both sexes and aged between 18 and 75 years. Patients were divided into three groups and submitted to a randomized, double blind, placebo-controlled, parallel-group clinical trial, with double-dummy modality for patients in group 2.\n(§2) Group 1 was treated with 20 mg trazodone (10 drops of 6% trazodone hydrochloride solution) three times a day for 8 weeks, for a total of 60 mg a day.\n(§3) Group 2 was treated with 10 mg trazodone (5 drops of 6% trazodone hydrochloride solution) three times a day for 8 weeks, for a total of 30 mg a day.\n(§4) Group 3 was treated with placebo, 10 drops of an oral solution three times a day for 8 weeks.\n(§5) During the ninth week, concluding the clinical trial, group 1 was treated with 10 mg trazodone three times daily for a total of 30 mg per day, while both group 2 and group 3 were treated with placebo.\nGabapentin was administered in an incremental dosage for all patients treated according to the dosage regimen shown in Table 1 below using capsules containing 100 mg, 300 mg and 400 mg of commercially available gabapentin (Neurontin®, Pfizer). […]\nThe results are expressed as a percentage of patients with a positive risk of depression or anxiety compared to the normal general population in which a normal value of […] is estimated."}, "[2]": {"test_system": "patients with diabetic neuropathy", "assay": "Clinical study, Brief Pain Inventory-Short Form (BPI-SF) pain self-assessment", "assay_type": "in vivo", "conditions": "Group 3", "procedure": "as §1, §2, §3, §4, §5\nThe 6% trazodone hydrochloride solution contained trazodone hydrochloride (6%), macrogol (35%), propylene glycol (30%), citric acid (0.5%), sucrose (0.15%), sodium hydroxide (0.125%), propyl gallate (0.10%), disodium edetate (0.05%), and purified water as needed at 100 mL. The placebo solution is identical to trazodone solution, but without active ingredient.\nGabapentin was administered in an incremental dosage for all patients treated according to the dosage regimen shown in Table 1 below using capsules containing 100 mg, 300 mg and 400 mg of commercially available gabapentin (Neurontin®, Pfizer). The capsules contain lactose monohydrate, corn starch and talc as excipients, and E171 and […] color combinations.\nAt the beginning of treatment and at the end of each treatment week, the patients under treatment completed the Brief Pain Inventory-Short Form (BPI-SF), which includes a set of questions relating to pain self-assessment (Zelman D C, et al., “Validation of a modified version of the pain inventory brief for painful diabetic peripheral neuropathy”, J. Pain Symptom Manage. 2005 April; 29(4):401-10).\nIn particular, patients assessed the average pain intensity in the week prior to the assessment (issue 5) and at the time of the assessment (issue 6) on a scale from 0 to 10 where 0 represents “no pain” and 10 represents “more pain than you can imagine”.\nAt each visit the evaluations were collected and processed in order to determine the deviation from the average value obtained for each group at the beginning of the treatment. The results were collected in the following Tables 3 and 4, from which the graphs shown in FIGS. 1 and 2 were obtained, respectively."}, "[3]": {"test_system": "adult diabetic patients with painful distal symmetrical polyneuropathy", "conditions": "oral 50 or 100 mg/day; after 2 weeks of therapy; cited from earlier work"}, "[4]": {"test_system": "diabetic patients suffering from peripheral diabetic neuropathy", "conditions": "100 mg/day in a divided dose; 6 diabetic patients; cited from earlier work"}, "[5]": {"conditions": "Visit 1, placebo drops + gabapentin 300 mg/day"}, "[6]": {"conditions": "Visit 2, placebo drops + gabapentin 600 mg/day"}, "[7]": {"conditions": "Visit 3, placebo drops + gabapentin 900 mg/day"}, "[8]": {"conditions": "Visit 4, placebo drops + gabapentin 1200 mg/day"}, "[9]": {"conditions": "Visit 5, placebo drops + gabapentin 1800 mg/day"}, "[10]": {"conditions": "Visit 6, placebo drops + gabapentin 2400 mg/day"}, "[11]": {"conditions": "Visit 7, placebo drops + gabapentin 2400 mg/day"}, "[12]": {"conditions": "Visit 8, placebo drops + gabapentin 2400 mg/day"}, "[13]": {"conditions": "Visit 9, placebo drops + gabapentin"}, "[14]": {"conditions": "placebo drops + incremental gabapentin"}}, "data": [{"smiles": "NCC1(CC(=O)O)CCCCC1", "note": "[gabapentin, 2-[1-(aminomethyl)cyclohexyl] acetic acid]", "values": [{"measurement": "percentage of patients with a positive risk of depression or anxiety", "setting": "[1]; Visit 0 (beginning of treatment, baseline)", "value": 38, "unit": "%"}, {"measurement": "percentage of patients with a positive risk of depression or anxiety", "setting": "[1]; Visit 8 (end of treatment), placebo drops + incremental gabapentin", "value": 29, "unit": "%"}, {"measurement": "Average pain assessment deviation from beginning of treatment (Visit 0), Question 5", "setting": "[2]; [5]", "value": "−1.0"}, {"measurement": "Average pain assessment deviation from beginning of treatment (Visit 0), Question 6", "setting": "[2]; [5]", "value": "−0.9"}, {"measurement": "Average pain assessment deviation from beginning of treatment (Visit 0), Question 5", "setting": "[2]; [6]", "value": "−1.7"}, {"measurement": "Average pain assessment deviation from beginning of treatment (Visit 0), Question 6", "setting": "[2]; [6]", "value": "−1.4"}, {"measurement": "Average pain assessment deviation from beginning of treatment (Visit 0), Question 5", "setting": "[2]; [7]", "value": "−2.1"}, {"measurement": "Average pain assessment deviation from beginning of treatment (Visit 0), Question 6", "setting": "[2]; [7]", "value": "−1.7"}, {"measurement": "Average pain assessment deviation from beginning of treatment (Visit 0), Question 5", "setting": "[2]; [8]", "value": "−1.9"}, {"measurement": "Average pain assessment deviation from beginning of treatment (Visit 0), Question 6", "setting": "[2]; [8]", "value": "−1.6"}, {"measurement": "Average pain assessment deviation from beginning of treatment (Visit 0), Question 5", "setting": "[2]; [9]", "value": "−2.1"}, {"measurement": "Average pain assessment deviation from beginning of treatment (Visit 0), Question 6", "setting": "[2]; [9]", "value": "−1.8"}, {"measurement": "Average pain assessment deviation from beginning of treatment (Visit 0), Question 5", "setting": "[2]; [10]", "value": "−2.4"}, {"measurement": "Average pain assessment deviation from beginning of treatment (Visit 0), Question 6", "setting": "[2]; [10]", "value": "−2.0"}, {"measurement": "Average pain assessment deviation from beginning of treatment (Visit 0), Question 5", "setting": "[2]; [11]", "value": "−2.4"}, {"measurement": "Average pain assessment deviation from beginning of treatment (Visit 0), Question 6", "setting": "[2]; [11]", "value": "−1.9"}, {"measurement": "Average pain assessment deviation from beginning of treatment (Visit 0), Question 5", "setting": "[2]; [12]", "value": "−2.5"}, {"measurement": "Average pain assessment deviation from beginning of treatment (Visit 0), Question 6", "setting": "[2]; [12]", "value": "−2.0"}, {"measurement": "Average pain assessment deviation from beginning of treatment (Visit 0), Question 5", "setting": "[2]; [13]", "value": "−2.5"}, {"measurement": "Average pain assessment deviation from beginning of treatment (Visit 0), Question 6", "setting": "[2]; [13]", "value": "−2.0"}, {"measurement": "Patients with 50% reduction (percentage of patients with a reduction of at least 50% compared to the initial value), question 5", "setting": "[2]; [14]", "value": 45.8, "unit": "%"}, {"measurement": "Sum deviations (sum of all the deviations obtained at each visit), question 5", "setting": "[2]; [14]", "value": "−117.6"}]}, {"smiles": "O=c1n(CCCN2CCN(c3cccc(Cl)c3)CC2)nc2ccccn12", "note": "[trazodone, 2-(3-[4-(3-chlorophenyl)piperazin-1-yl]propyl)-[1,2,4]triazole[4,3-a]pyridin-3(2H)-one]", "values": [{"measurement": "patients with complete relief", "setting": "[3]", "value": 22.6, "unit": "%"}, {"measurement": "patients with symptomatic relief", "setting": "[3]", "value": 61.3, "unit": "%"}, {"measurement": "effect in pain relief and numbness", "setting": "[4]", "value": "good effect"}]}]}
